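Step 1: Grow cells in 96-well plates. Step 2: Expose to compound for 48 hours at 5 concentrations. Step 3: Interpolate endpoints linearly; if unreached, use highest concentration. The concentration for 50% growth inhibition is given as GI50.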 Activity calls are given as the source filed them. Cut-off read from the data, not from the text of the source: active = GI50 up to about 1.1 µM and inactive = higher.
What was measured:
Experiment in all cases: DTP human tumour cell line panel, 48 h
[1] = test system: 786-0
[2] = test system: A498
[3] = test system: A549
[4] = test system: ACHN
[5] = test system: BT-549
[6] = test system: CAKI-1
[7] = test system: CCRF-CEM
[8] = test system: COLO 205
[9] = test system: DU-145
[10] = test system: EKVX
[11] = test system: HCC 2998
[12] = test system: HCT-116
[13] = test system: HCT-15
[14] = test system: HL-60
[15] = test system: HOP-62
[16] = test system: HOP-92
[17] = test system: HT-29
[18] = test system: Hs-578T
[19] = test system: IGROV-1
[20] = test system: K562
[21] = test system: KM12
[22] = test system: LOX IMVI
[23] = test system: M14
[24] = test system: MCF7
[25] = test system: MDA-MB-231
[26] = test system: MDA-MB-435
[27] = test system: MDA-N
[28] = test system: MOLT-4
[29] = test system: Malme-3M
[30] = test system: NCI-H226
[31] = test system: NCI-H23
[32] = test system: NCI-H460
[33] = test system: NCI-H522
[34] = test system: NCI/ADR-RES
[35] = test system: OVCAR-3
[36] = test system: OVCAR-4
[37] = test system: OVCAR-5
[38] = test system: OVCAR-8
[39] = test system: PC-3
[40] = test system: RPMI-8226
[41] = test system: SF-268
[42] = test system: SF-295
[43] = test system: SF-539
[44] = test system: SK-MEL-28
[45] = test system: SK-MEL-2
[46] = test system: SK-MEL-5
[47] = test system: SK-OV-3
[48] = test system: SN12C
[49] = test system: SNB-19
[50] = test system: SNB-75
[51] = test system: SR
[52] = test system: SW-620
[53] = test system: T47D
[54] = test system: TK-10
[55] = test system: U-251
[56] = test system: UACC-257
[57] = test system: UACC-62
[58] = test system: UO-31
[59] = test system: RXF 393

Which GI50 [1] does the source give for `C=C1CC(C)(COc2ccc3c(C)c(C)c(=O)oc3c2C)OC1=O` (stereo unspecified) here?
Its GI50 is 1.4 µM (inactive).

And the GI50 [2]?
The GI50 was 2.22 µM (inactive).

And the GI50 [3]?
Its GI50 is 7.67 µM (inactive).

And the GI50 [4]?
The GI50 was 2.33 µM (inactive).

And the GI50 [5]?
Its GI50 is 1.5 µM (inactive).

What about the GI50 [6] of the same compound?
Its GI50 is 1.7 µM (inactive).

What about the GI50 [7] of the same compound?
The GI50 was 0.411 µM (active).

And the GI50 [8]?
The GI50 was 1.06 µM (active).

And the GI50 [9]?
The GI50 was 2.51 µM (inactive).

What about the GI50 [10] of the same compound?
The GI50 was 5.52 µM (inactive).

What about the GI50 [11] of the same compound?
Its GI50 is 1.76 µM (inactive).

What about the GI50 [12] of the same compound?
Its GI50 is 0.879 µM (active).

And the GI50 [13]?
The GI50 was 1.56 µM.

And the GI50 [14]?
Its GI50 is 0.19 µM (active).

What about the GI50 [15] of the same compound?
Its GI50 is 12.5 µM (inactive).

And the GI50 [16]?
The GI50 was 1.26 µM (inactive).

What about the GI50 [17] of the same compound?
The GI50 was 2.17 µM (inactive).

And the GI50 [18]?
Its GI50 is 1.9 µM (inactive).

What about the GI50 [19] of the same compound?
Its GI50 is 1.63 µM (inactive).

What about the GI50 [20] of the same compound?
Its GI50 is 0.811 µM (active).

And the GI50 [21]?
The GI50 was 4.54 µM (inactive).

What about the GI50 [22] of the same compound?
The GI50 was 1.2 µM (inactive).

What about the GI50 [23] of the same compound?
Its GI50 is 2.56 µM (inactive).

And the GI50 [24]?
Its GI50 is 1.29 µM (inactive).

What about the GI50 [25] of the same compound?
Its GI50 is 2.52 µM (inactive).

What about the GI50 [26] of the same compound?
The GI50 was 2.7 µM (inactive).

And the GI50 [27]?
Its GI50 is 1.77 µM (inactive).

What about the GI50 [28] of the same compound?
Its GI50 is 1.08 µM (active).

What about the GI50 [29] of the same compound?
Its GI50 is 1.39 µM (inactive).

What about the GI50 [30] of the same compound?
The GI50 was 13.7 µM (inactive).

What about the GI50 [31] of the same compound?
The GI50 was 1.82 µM (inactive).

What about the GI50 [32] of the same compound?
The GI50 was 5.33 µM (inactive).

And the GI50 [33]?
Its GI50 is 1.56 µM (inactive).

And the GI50 [34]?
The GI50 was 2.46 µM (inactive).

What about the GI50 [35] of the same compound?
The GI50 was 3.3 µM (inactive).

And the GI50 [36]?
The GI50 was 4.3 µM (inactive).

What about the GI50 [37] of the same compound?
Its GI50 is 6.27 µM (inactive).

What about the GI50 [38] of the same compound?
Its GI50 is 2.11 µM (inactive).

And the GI50 [39]?
The GI50 was 2.27 µM (inactive).

And the GI50 [40]?
The GI50 was 0.594 µM (active).

What about the GI50 [41] of the same compound?
The GI50 was 4.15 µM (inactive).

And the GI50 [42]?
Its GI50 is 5.19 µM (inactive).

What about the GI50 [43] of the same compound?
Its GI50 is 2.24 µM (inactive).

And the GI50 [44]?
Its GI50 is 2.07 µM (inactive).

What about the GI50 [45] of the same compound?
The GI50 was 2.01 µM (inactive).

And the GI50 [46]?
Its GI50 is 1.68 µM (inactive).

What about the GI50 [47] of the same compound?
The GI50 was 3.05 µM (inactive).

What about the GI50 [48] of the same compound?
Its GI50 is 2.04 µM (inactive).

And the GI50 [49]?
The GI50 was 13.4 µM (inactive).

What about the GI50 [50] of the same compound?
The GI50 was 3.66 µM (inactive).

What about the GI50 [51] of the same compound?
Its GI50 is 0.995 µM (active).

And the GI50 [52]?
The GI50 was 1.29 µM (inactive).

And the GI50 [53]?
Its GI50 is 1.28 µM (inactive).

What about the GI50 [54] of the same compound?
The GI50 was 1.15 µM (inactive).

What about the GI50 [55] of the same compound?
The GI50 was 6.56 µM (inactive).

What about the GI50 [56] of the same compound?
Its GI50 is 2.09 µM (inactive).

What about the GI50 [57] of the same compound?
Its GI50 is 1.27 µM (inactive).

What about the GI50 [58] of the same compound?
The GI50 was 9.18 µM (inactive).

With `CNc1ccc2c(c1)[C@@]1(C)c3ccccc3[C@@H](C2)N1C` as the compound, how does the GI50 [1] read?
The GI50 was 17.4 µM (inactive).

And the GI50 [2]?
The GI50 was 26.4 µM (inactive).

What about the GI50 [3] of the same compound?
The GI50 was 30.2 µM (inactive).

And the GI50 [4]?
Its GI50 is 30.6 µM (inactive).

What about the GI50 [5] of the same compound?
The GI50 was 17.6 µM (inactive).

What about the GI50 [6] of the same compound?
Its GI50 is 36.5 µM (inactive).

And the GI50 [7]?
Its GI50 is 20.4 µM (inactive).

And the GI50 [9]?
The GI50 was 39.5 µM (inactive).

And the GI50 [10]?
The GI50 was 32.7 µM (inactive).

And the GI50 [11]?
The GI50 was 20.1 µM (inactive).

And the GI50 [12]?
The GI50 was 16.1 µM (inactive).

And the GI50 [13]?
The GI50 was 19 µM.

And the GI50 [14]?
The GI50 was 14.7 µM (inactive).

What about the GI50 [15] of the same compound?
Its GI50 is 42.1 µM (inactive).

What about the GI50 [16] of the same compound?
The GI50 was 27.1 µM (inactive).

What about the GI50 [17] of the same compound?
The GI50 was 18.8 µM (inactive).

What about the GI50 [18] of the same compound?
Its GI50 is 29.7 µM (inactive).

And the GI50 [19]?
The GI50 was 48.9 µM (inactive).

And the GI50 [20]?
Its GI50 is 23.2 µM (inactive).

And the GI50 [21]?
The GI50 was 22.4 µM (inactive).

What about the GI50 [22] of the same compound?
The GI50 was 19.5 µM (inactive).

What about the GI50 [23] of the same compound?
Its GI50 is 21.6 µM (inactive).

What about the GI50 [24] of the same compound?
Its GI50 is 29.7 µM (inactive).

And the GI50 [25]?
Its GI50 is 23.2 µM (inactive).

And the GI50 [26]?
Its GI50 is 19.1 µM (inactive).

And the GI50 [27]?
Its GI50 is 24.4 µM (inactive).

What about the GI50 [28] of the same compound?
The GI50 was 17.5 µM (inactive).

What about the GI50 [29] of the same compound?
The GI50 was 28 µM (inactive).

What about the GI50 [31] of the same compound?
Its GI50 is 22.6 µM (inactive).

What about the GI50 [32] of the same compound?
Its GI50 is 18.4 µM (inactive).

And the GI50 [33]?
The GI50 was 15.7 µM (inactive).

What about the GI50 [34] of the same compound?
The GI50 was 27.4 µM (inactive).

What about the GI50 [35] of the same compound?
The GI50 was 20.1 µM (inactive).

What about the GI50 [36] of the same compound?
Its GI50 is 30.7 µM (inactive).

What about the GI50 [37] of the same compound?
The GI50 was 25.9 µM (inactive).

And the GI50 [39]?
The GI50 was 29.9 µM (inactive).

What about the GI50 [40] of the same compound?
The GI50 was 15.7 µM (inactive).

What about the GI50 [59] of the same compound?
Its GI50 is 20.3 µM (inactive).

What about the GI50 [41] of the same compound?
Its GI50 is 44.4 µM (inactive).

And the GI50 [42]?
Its GI50 is 29.6 µM (inactive).

What about the GI50 [45] of the same compound?
The GI50 was 21.6 µM (inactive).

And the GI50 [46]?
Its GI50 is 17.7 µM (inactive).

And the GI50 [47]?
The GI50 was 43.8 µM (inactive).

And the GI50 [48]?
The GI50 was 17.4 µM (inactive).

And the GI50 [49]?
Its GI50 is 37.8 µM (inactive).

And the GI50 [51]?
The GI50 was 22.6 µM (inactive).

And the GI50 [52]?
Its GI50 is 33.7 µM (inactive).

What about the GI50 [53] of the same compound?
Its GI50 is 28.1 µM (inactive).

And the GI50 [54]?
Its GI50 is 28.8 µM (inactive).

What about the GI50 [55] of the same compound?
The GI50 was 20.4 µM (inactive).

And the GI50 [56]?
The GI50 was 23.4 µM (inactive).

And the GI50 [57]?
The GI50 was 16.4 µM (inactive).

What about the GI50 [58] of the same compound?
Its GI50 is 28.1 µM (inactive).
